Reference: patent US11040947B2, “Substituted quinazolines as matrix metalloproteinase-9 hemopexin domain inhibitors” (The Research Foundation for The State University of New York, priority 2017, dated 2021)

What was measured:
[1] = tested on: proMMP-14-mediated migration of COS-1 cells; assay: two-dimensional dot migration assay, COS-1 cells stably expressing proMMP-14; assay type: cell-based
Experimental: (§1) To test whether compound 3c is specific for inhibiting only proMMP9-mediated migration, a two-dimensional dot migration assay was performed using COS-1 cells engineered to stably express vector control pQCXIP, proMMP-2, proMMP-9, or proMMP-14 cDNA vectors. An immunoblot was performed to confirm protein expression and proper localization of each MMP (MMP-2/-9 are secreted while MMP-14 is membrane bound).

[2] = tested on: proMMP9-mediated migration of COS-1 cells; assay: two-dimensional dot migration assay, COS-1 cells stably expressing proMMP-9; assay type: cell-based
Experimental: as §1

[3] = tested on: FAK and PAX adhesion junctions in HT1080 cells; assay: focal adhesion complexes, immunofluorescence in HT1080 cells; assay type: cell-based, Human; conditions: 50 μM overnight
[4] = tested on: EGFR^Tyr1068, AKT^Ser473, Erk1/2^Thr202/Tyr204 phosphorylation; assay: phosphorylation of EGFR and downstream targets in HT1080 cells; assay type: cell-based, Human; conditions: 50 μM overnight
[5] = target: T1, APMA-activated recombinant proMMP-9 (Homo sapiens, UniProt P14780); assay: MMP-9 catalytic activity with fluorogenic peptide; assay type: biochemical; conditions: 10 μM fluorogenic peptide, monitored over 2 hours
T1 construct: made in house
T1 sequence (P14780 107-707 limits assumed): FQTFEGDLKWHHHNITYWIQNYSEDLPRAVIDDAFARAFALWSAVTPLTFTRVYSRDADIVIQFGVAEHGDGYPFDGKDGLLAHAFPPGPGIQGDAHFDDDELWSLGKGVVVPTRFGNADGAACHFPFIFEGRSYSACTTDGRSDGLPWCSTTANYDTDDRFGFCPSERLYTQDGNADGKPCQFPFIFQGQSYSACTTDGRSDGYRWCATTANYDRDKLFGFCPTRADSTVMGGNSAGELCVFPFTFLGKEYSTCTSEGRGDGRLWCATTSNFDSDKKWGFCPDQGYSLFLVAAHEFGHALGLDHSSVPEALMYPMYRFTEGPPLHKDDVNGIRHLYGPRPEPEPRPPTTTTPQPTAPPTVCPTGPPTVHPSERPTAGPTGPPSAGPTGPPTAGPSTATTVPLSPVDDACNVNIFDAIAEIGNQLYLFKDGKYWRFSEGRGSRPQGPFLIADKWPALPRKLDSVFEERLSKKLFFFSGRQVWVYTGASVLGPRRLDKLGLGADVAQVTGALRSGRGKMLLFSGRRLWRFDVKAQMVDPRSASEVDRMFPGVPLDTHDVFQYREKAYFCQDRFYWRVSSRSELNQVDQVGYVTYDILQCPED
Experimental: Recombinant proMMP-9 protein was purified and incubated overnight in a 37° C. water bath in TNC buffer+1 mM APMA to artificially activate the protein.

[6] = tested on: proMMP-2-mediated migration of COS-1 cells; assay: two-dimensional dot migration assay, COS-1 cells stably expressing proMMP-2; assay type: cell-based
Experimental: as §1

[7] = target: T2, MMP-9 association with CD44 and EGFR (Homo sapiens, UniProt P14780); assay: co-immunoprecipitation of endogenous CD44 and EGFR with MMP-9 in HT1080 cells; assay type: cell-based; conditions: 50 μM overnight
T2 construct: expressed in transfected cells; host or cells: HT1080 human fibrosarcoma cells (MMP-9 transfected; CD44 and EGFR endogenous)
T2 sequence (P14780 94-707): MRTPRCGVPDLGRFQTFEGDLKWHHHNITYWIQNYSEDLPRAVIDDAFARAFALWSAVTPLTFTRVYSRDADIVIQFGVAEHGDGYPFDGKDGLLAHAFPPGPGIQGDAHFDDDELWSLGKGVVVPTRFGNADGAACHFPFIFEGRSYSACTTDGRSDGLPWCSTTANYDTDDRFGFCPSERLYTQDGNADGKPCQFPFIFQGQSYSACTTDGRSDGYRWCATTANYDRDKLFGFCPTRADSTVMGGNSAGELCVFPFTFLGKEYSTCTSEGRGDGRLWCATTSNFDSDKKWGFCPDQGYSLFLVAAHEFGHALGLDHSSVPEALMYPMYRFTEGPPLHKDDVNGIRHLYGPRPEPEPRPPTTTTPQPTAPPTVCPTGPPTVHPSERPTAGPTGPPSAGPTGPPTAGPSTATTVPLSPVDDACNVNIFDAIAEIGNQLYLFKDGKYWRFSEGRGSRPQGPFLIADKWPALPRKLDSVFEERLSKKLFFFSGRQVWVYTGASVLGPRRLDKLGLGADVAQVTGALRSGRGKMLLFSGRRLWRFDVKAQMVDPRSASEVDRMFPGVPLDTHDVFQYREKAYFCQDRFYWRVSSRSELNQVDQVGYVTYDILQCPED

[8] = tested on: Src^Tyr418, FAK^Tyr576/577, PAX^Tyr118 phosphorylation; assay: phosphorylation of Src and downstream targets in HT1080 cells; assay type: cell-based, Human; conditions: 50 μM
Experimental: (§2) HT1080 cells transiently co-transfected with tagged MMP-9 cDNAs were prepared as described above.

HT1080 cells [9] = assay: cell adhesion to collagen or fibronectin coated plate; assay type: cell-based, Human; conditions: 37° C. 30 min
Experimental: A 96-well plate was coated with a thin layer of either collagen or fibronectin (5 μg/ml in PBS) substrate before use. HT1080 cells were then seeded onto wells and incubated at 37° C. for 30 min in the presence of various inhibitors. Wells were washed and cells were fixed in 4% paraformaldehyde and stained with DAPI. Images of each 96-well were microscopically captured and counted for the number of cells still adherent to the coated surface using automated computer software.

[10] = target: T3, MMP-9 interaction with α4/β1 integrin (Homo sapiens, UniProt P14780); assay: co-immunoprecipitation of endogenous integrin with MMP-9 in HT1080 cells; assay type: cell-based; conditions: 50 μM
T3 construct: expressed in transfected cells; host or cells: HT1080 cells (MMP-9 transfected; integrin endogenous)
T3 sequence (P14780 94-707): as above
Experimental: as §2

[11] = tested on: HT1080 cells stably expressing GFP; assay: chorioallantoic membrane (CAM) assay, invasion; assay type: in vivo, chicken embryo; conditions: 100 μM stock solution (final estimated 0.5 μM), vs DMSO or 1f
Experimental: HT1080 cells stably expressing GFP were mixed with a type I collagen solution (3 mg/mL) and seeded atop the CAM to ensure the cells localized to a specific area. […] The invasion of cancer cells through the epithelium and basement membrane of the upper CAM into connecting tissue was examined by hematoxylin and eosin staining in addition to fluorescence microscopy for GFP^+ cells.

[12] = tested on: MMP-9 at the cell surface of HT1080 cells; assay: MMP-9 cell surface localization, immunofluorescence in HT1080 cells; assay type: cell-based, Human
Experimental: HT1080 cells were fixed in 4% paraformaldehyde then subsequently incubated with anti-MMP-9 in addition to anti-α4 and/or β1 integrin antibodies to monitor relative levels of localization of these proteins at the cell surface. The cells were counterstained with DAPI nuclear dye.

HT1080 cells [13] = assay: chorioallantoic membrane (CAM) assay, angiogenesis; assay type: in vivo, chicken embryo; conditions: 100 μM stock solution (final estimated 0.5 μM), 4-day incubation, vs DMSO and 1f
Experimental: A CAM assay was carried out to evaluate angiogenic and invasive potential of HT1080 cells after treatment with 3c. […] After a 4-day incubation, neovascularization was imaged and quantified.

[14] = tested on: proMMP9-mediated migration of COS-1 cells; assay: two-dimensional collagen dot migration assay, COS-1 cells overexpressing proMMP-9; assay type: cell-based; conditions: above 50 μM
Experimental: This assay was initially used to test the efficacy of analogs at a single concentration, 50 μM.
Cells were mixed with type I collagen solution with or without compound, dotted onto a 96-well plate, and allowed to migrate for 18 hours. They were then fixed, stained and scored for extent of migration.

`CCCc1cc(=O)nc(SCC(=O)Nc2ccc(OC(F)F)cc2)[nH]1` [Compound 1a, N-(4-Difluoromethoxyphenyl)-2-(4-oxo-6-propyl-1,4-dihydropyrimidin-2-ylthio)acetamide] was tested. Which “inhibition of proMMP-14-mediated migration” value [1] did it give?
The value was “only inhibited proMMP9-mediated migration”.

What about the “inhibition of proMMP-9-mediated migration” value [2] of the same compound?
Its value is “only inhibited proMMP9-mediated migration”.

And the “formation of FAK and PAX adhesion junctions” value [3]?
Its value is “A decrease in the formation of FAK and PAX adhesion junctions”.

What about the “phosphorylation of EGFR^Tyr1068 and downstream targets AKT^Ser473 and Erk1/2^Thr202/Tyr204” value [4] of the same compound?
Its value is “reduced phosphorylation”.

And the “inhibition of MMP-9 catalytic activity” value [5]?
Its value is “No inhibition of the catalytic activity was observed”.

What about the “inhibition of proMMP-2-mediated migration” value [6] of the same compound?
The value was “only inhibited proMMP9-mediated migration”.

And the “endogenous CD44 and EGFR co-immunoprecipitation” value [7]?
The value was “reduced endogenous CD44 and EGFR co-immunoprecipitation”.

And the “Src^Tyr418 phosphorylation and phosphorylation of FAK^Tyr576/577 and PAX^Tyr118” value [8]?
The value was “reduced Src^Tyr418 phosphorylation”.

And the cellular adhesion (HT1080 cells [9])?
Its cellular adhesion is “inhibited cellular adhesion”.

And the “endogenous α4β1 integrin co-immunoprecipitation” value [10]?
The value was “reduced endogenous α4β3 integrin co-immunoprecipitation”.

And the “invasion of CAM tissue” value [11]?
The value was “reduced invasion of CAM tissue”.

What about the “localization of MMP-9 on the cell surface” value [12] of the same compound?
The value was “loss of MMP-9 from the cell surface”.

And the “angiogenic potential of HT1080 cells (neovascularization)” value (HT1080 cells [13])?
The value was “significantly reduced the angiogenic potential of HT1080 cells”.

What about the “inhibitor effectiveness at concentrations above 50 μM” value [14] of the same compound?
The value was “did not increase inhibitor effectiveness”.
